Read-outs that look alike come from different tables or passages of the source. Non-standard residues stand in square brackets, D forms with d. Residues, ends and D or L forms follow the SMILES beside them. *: point of attachment. DOTA = O=C(O)CN1CCN(CC(=O)O)CCN(CC(=O)*)CCN(CC(=O)O)CC1; Bpa = N[C@@H](Cc1ccc(C(=O)c2ccccc2)cc1)C(=O)O; Phe(4-Cl) = N[C@@H](Cc1ccc(Cl)cc1)C(=O)O; d2Nal = N[C@H](Cc1ccc2ccccc2c1)C(=O)O; d3Pal = N[C@H](Cc1cccnc1)C(=O)O; azaGly = NNC(=O)O; Sar = CNCC(=O)O

The subject of the assay is LHRH binding sites on human ovarian cancer cells (EFO-27).
Where [1] appears, read: EFO-27 cells, competition with [125I-Tyr8]BRU-2477, 90 min.
Where [2] appears, read: Table 5: modifications of amino acids at positions 1 and 2, in vitro binding on EFO-27 cells.
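Note: Cell-associated radioactivity on confluent EFO-27 monolayers in 96-well plates, measured by microplate scintillation counting.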

For the molecule `CN(C(=O)CN1CCN(CC(=O)O)CCN(CC(=O)O)CCN(CC(=O)O)CC1)[C@H](Cc1ccc2ccccc2c1)C(=O)N[C@@H](CCCNC(=N)N)C(=O)N[C@@H](Cc1c[nH]c2ccccc12)C(=O)N[C@@H](CO)C(=O)N[C@@H](Cc1c[nH]cn1)C(=O)N[C@H](CCCNC(=N)N)C(=O)N[C@@H](Cc1c[nH]c2ccccc12)C(=O)N[C@@H](Cc1ccc(C(=O)c2ccccc2)cc1)C(=O)N1CCC[C@H]1C(=O)NNC(N)=O` [BRU-2965], the midpoint of the response, the EC50, lay at 580 nM. Besides, the “binding potency, times lower than BRU-2813” value (ratio of EC50 to BRU-2813 (EC50=0.33 μM)) is reported as about 2.
`N=C(N)NCCC[C@H](NC(=O)[C@@H](Cc1ccc2ccccc2c1)NC(=O)CN1CCN(CC(=O)O)CCN(CC(=O)O)CCN(CC(=O)O)CC1)C(=O)N[C@@H](Cc1c[nH]c2ccccc12)C(=O)N[C@@H](CO)C(=O)N[C@@H](Cc1cscn1)C(=O)N[C@H](CCCNC(=N)N)C(=O)N[C@@H](Cc1c[nH]c2ccccc12)C(=O)N[C@@H](Cc1ccc(C(=O)c2ccccc2)cc1)C(=O)N1CCC[C@H]1C(=O)NNC(N)=O` [compound 2958]: the EC50 – broadly, the concentration that produces a half-maximal response – was found to be 710 nM.
In turn, `CC(C)C[C@H](NC(=O)[C@H](Cc1c[nH]c2ccccc12)NC(=O)[C@H](CCCNC(=N)N)NC(=O)[C@@H](Cc1ccc2ccccc2c1)NC(=O)CN1CCN(CC(=O)O)CCN(CC(=O)O)CCN(CC(=O)O)CC1)C(=O)N[C@@H](Cc1c[nH]cn1)C(=O)N[C@H](CCCNC(=N)N)C(=O)N[C@@H](Cc1c[nH]c2ccccc12)C(=O)N[C@@H](Cc1ccc(C(=O)c2ccccc2)cc1)C(=O)N1CCC[C@H]1C(=O)NNC(N)=O` [compound 3113] ({DOTA}-[d2Nal]RWLH[dR]W[Bpa]P[azaGly]-NH2) registered an EC50 of 1130 nM.
The same measure, in the same setting: to `CN(CC(=O)N[C@@H](Cc1c[nH]cn1)C(=O)N[C@@H](Cc1c[nH]c2ccccc12)C(=O)N[C@@H](CO)C(=O)N[C@@H](Cc1c[nH]cn1)C(=O)N[C@H](Cc1cccnc1)C(=O)N[C@@H](Cc1c[nH]c2ccccc12)C(=O)N[C@@H](Cc1ccc(C(=O)c2ccccc2)cc1)C(=O)N1CCC[C@H]1C(=O)NNC(N)=O)C(=O)CN1CCN(CC(=O)O)CCN(CC(=O)O)CCN(CC(=O)O)CC1` [compound 2673] ({DOTA}-[Sar]HWSH[d3Pal]W[Bpa]P[azaGly]-NH2) belongs 12300 nM.
Still for that read-out and setting: under `CNCC(=O)N[C@@H](Cc1c[nH]cn1)C(=O)N[C@@H](Cc1c[nH]c2ccccc12)C(=O)N[C@@H](CO)C(=O)N[C@@H](Cc1c[nH]cn1)C(=O)N[C@H](CCCNC(=N)N)C(=O)N[C@@H](Cc1c[nH]c2ccccc12)C(=O)N[C@@H](Cc1ccc(O)cc1)C(=O)N1CCC[C@H]1C(=O)NNC(N)=O` [BRU-2439, [Sar^1, Darg^6, azaGly^10]LHRH-II] (HELM PEPTIDE1{[Sar].H.W.S.H.[dR].W.Y.P.[O=C(NN[*:1])[*:2]].[am]}$$$$V2.0; N-terminus assumed) stands 250 nM.
As to `CN(CC(=O)N[C@@H](Cc1c[nH]cn1)C(=O)N[C@@H](Cc1c[nH]c2ccccc12)C(=O)N[C@@H](CO)C(=O)N[C@@H](Cc1ccc(O)cc1)C(=O)N[C@H](CCCNC(=N)N)C(=O)N[C@@H](Cc1c[nH]c2ccccc12)C(=O)N[C@@H](Cc1ccc(C(=O)c2ccccc2)cc1)C(=O)N1CCC[C@H]1C(=O)NNC(N)=O)C(=O)CN1CCN(CC(=O)O)CCN(CC(=O)O)CCN(CC(=O)O)CC1` [BRU-2668] ({DOTA}-[Sar]HWSY[dR]W[Bpa]P[azaGly]-NH2; C-terminus assumed), under setting [1], the concentration giving a half-maximal response (EC50) came out at 3470 nM.
Molecule `COc1ccccc1CNC(=O)[C@@H]1CCCN1C(=O)[C@H](Cc1ccc(C(=O)c2ccccc2)cc1)NC(=O)[C@H](Cc1c[nH]c2ccccc12)NC(=O)[C@@H](CCCNC(=N)N)NC(=O)[C@H](Cc1c[nH]cn1)NC(=O)[C@H](CO)NC(=O)[C@H](Cc1c[nH]c2ccccc12)NC(=O)[C@H](CCCNC(=N)N)NC(=O)[C@@H](Cc1ccc2ccccc2c1)NC(=O)CN1CCN(CC(=O)O)CCN(CC(=O)O)CCN(CC(=O)O)CC1` [compound 3020] came in with an EC50 of 450 nM.
The same measure, in the same setting: under `CN(CC(=O)N[C@@H](Cc1c[nH]cn1)C(=O)N[C@@H](Cc1c[nH]c2ccccc12)C(=O)N[C@@H](CO)C(=O)N[C@@H](Cc1c[nH]cn1)C(=O)N[C@H](CCCNC(=N)N)C(=O)N[C@@H](Cc1c[nH]c2ccccc12)C(=O)N[C@@H](Cc1ccc(CN)cc1)C(=O)N1CCC[C@H]1C(=O)NNC(N)=O)C(=O)CN1CCN(CC(=O)O)CCN(CC(=O)O)CCN(CC(=O)O)CC1` [BRU-2760] stands 3550 nM; under `N=C(N)NCCC[C@H](NC(=O)[C@@H](Cc1ccc2ccccc2c1)NC(=O)CN1CCN(CC(=O)O)CCN(CC(=O)O)CCN(CC(=O)O)CC1)C(=O)N[C@@H](Cc1c[nH]c2ccccc12)C(=O)N[C@@H](CO)C(=O)N[C@@H](Cc1c[nH]cn1)C(=O)N[C@H](CCCNC(=N)N)C(=O)N[C@@H](Cc1c[nH]c2ccccc12)C(=O)O` [BRU-3046, DO3A10CM-Dna12-Arg-Trp-Ser-His-Darg-Trp-OH] (HELM PEPTIDE1{[O=C(O)CN1CCN(CC(=O)O)CCN(CC(=O)[*:2])CCN(CC(=O)O)CC1].[O=C([C@@H](Cc1ccc2ccccc2c1)N[*:1])[*:2]].R.W.S.H.[dR].W}$$$$V2.0), 15800 nM.
For the molecule `N=C(N)NCCC[C@H](NC(=O)[C@@H](Cc1ccc2ccccc2c1)NC(=O)CN1CCN(CC(=O)O)CCN(CC(=O)O)CCN(CC(=O)O)CC1)C(=O)N[C@@H](Cc1c[nH]c2ccccc12)C(=O)N[C@@H](CO)C(=O)N[C@@H](Cc1c[nH]cn1)C(=O)N[C@H](CCCNC(=N)N)C(=O)N[C@@H](Cc1c[nH]c2ccccc12)C(=O)N[C@@H](Cc1ccc(C(=O)c2ccccc2)cc1)C(=O)N1CCCC[C@H]1C(=O)NNC(N)=O` [compound 2996], the EC50 under setting [1] is 350 nM.
Regarding `N=C(N)NCCC[C@H](NC(=O)[C@@H](Cc1ccc2ccccc2c1)NC(=O)CN1CCN(CC(=O)O)CCN(CC(=O)O)CCN(CC(=O)O)CC1)C(=O)N[C@@H](Cc1c[nH]c2ccccc12)C(=O)N[C@@H](CO)C(=O)N[C@@H](Cc1c[nH]cn1)C(=O)N[C@H](CCCNC(=N)N)C(=O)N[C@@H](Cc1c[nH]c2ccccc12)C(=O)N[C@@H](Cc1ccc(C(=O)c2ccccc2)cc1)C(=O)N1CCC[C@H]1C(=O)NCC(=O)NCCCO` [compound 2987], under setting [1], a half-maximal response (EC50) required 2300 nM.
For the molecule `N=C(N)NCCC[C@H](NC(=O)[C@@H](Cc1ccc2ccccc2c1)NC(=O)[C@@H](N)CCCCNC(=O)CN1CCN(CC(=O)O)CCN(CC(=O)O)CCN(CC(=O)O)CC1)C(=O)N[C@@H](Cc1c[nH]c2ccccc12)C(=O)N[C@@H](CO)C(=O)N[C@@H](Cc1c[nH]cn1)C(=O)N[C@H](CCCNC(=N)N)C(=O)N[C@@H](Cc1c[nH]c2ccccc12)C(=O)N[C@@H](Cc1ccc(C(=O)c2ccccc2)cc1)C(=O)N1CCC[C@H]1C(=O)NNC(N)=O` [BRU 3098], a half-maximal effect (EC50) was put at 410 nM.
`CN(CC(=O)N[C@@H](Cc1ccc(Cl)cc1)C(=O)N[C@@H](Cc1c[nH]c2ccccc12)C(=O)N[C@@H](CO)C(=O)N[C@@H](Cc1c[nH]cn1)C(=O)N[C@H](CCCNC(=N)N)C(=O)N[C@@H](Cc1c[nH]c2ccccc12)C(=O)N[C@@H](Cc1ccc(C(=O)c2ccccc2)cc1)C(=O)N1CCC[C@H]1C(=O)NNC(N)=O)C(=O)CN1CCN(CC(=O)O)CCN(CC(=O)O)CCN(CC(=O)O)CC1` [BRU-2719] ({DOTA}-[Sar][Phe(4-Cl)]WSH[dR]W[Bpa]P[azaGly]-NH2): a half-maximal effect (EC50) was put at 630 nM.
The molecule `CNCC(=O)N[C@@H](CCCNC(=N)N)C(=O)N[C@@H](Cc1c[nH]c2ccccc12)C(=O)N[C@@H](CO)C(=O)N[C@@H](Cc1c[nH]cn1)C(=O)N[C@H](CCCNC(=N)N)C(=O)N[C@@H](Cc1c[nH]c2ccccc12)C(=O)N[C@@H](Cc1ccc(C(=O)c2ccccc2)cc1)C(=O)N1CCC[C@H]1C(=O)NCCCCCNC(=O)CN1CCN(CC(=O)O)CCN(CC(=O)O)CCN(CC(=O)O)CC1` [compound 3085] came in with an EC50 of 400 ± 250 nM.
`CN(CC(=O)N[C@@H](CCCNC(=N)N)C(=O)N[C@@H](Cc1c[nH]c2ccccc12)C(=O)N[C@@H](CO)C(=O)N[C@@H](Cc1c[nH]cn1)C(=O)N[C@H](CCCNC(=N)N)C(=O)N[C@@H](Cc1c[nH]c2ccccc12)C(=O)N[C@@H](Cc1ccc(C(=O)c2ccccc2)cc1)C(=O)N1CCC[C@H]1C(=O)NNC(N)=O)C(=O)CN1CCN(CC(=O)O)CCN(CC(=O)O)CCN(CC(=O)O)CC1` [BRU-2817]: the EC50 under setting [2] came to 1700 nM.
In the case of `N=C(N)NCCC[C@@H](NC(=O)[C@H](Cc1c[nH]cn1)NC(=O)[C@H](CO)NC(=O)[C@H](Cc1c[nH]c2ccccc12)NC(=O)[C@H](Cc1c[nH]cn1)NC(=O)[C@H](Cc1ccc2ccccc2c1)NC(=O)CN1CCN(CC(=O)O)CCN(CC(=O)O)CCN(CC(=O)O)CC1)C(=O)N[C@@H](Cc1c[nH]c2ccccc12)C(=O)N[C@@H](Cc1ccc(C(=O)c2ccccc2)cc1)C(=O)N1CCC[C@H]1C(=O)NNC(N)=O` [BRU-2809], the response was half-maximal at 3540 nM (EC50).
Still for that read-out and setting: to `CN(CC(=O)N[C@@H](Cc1c[nH]cn1)C(=O)N[C@@H](Cc1c[nH]c2ccccc12)C(=O)N[C@@H](CO)C(=O)N[C@@H](Cc1c[nH]cn1)C(=O)N[C@H](CCCNC(N)=O)C(=O)N[C@@H](Cc1c[nH]c2ccccc12)C(=O)N[C@@H](Cc1ccc(C(=O)c2ccccc2)cc1)C(=O)N1CCC[C@H]1C(=O)NNC(N)=O)C(=O)CN1CCN(CC(=O)O)CCN(CC(=O)O)CCN(CC(=O)O)CC1` [BRU-2729] belongs 14200 nM.
For the molecule `C[C@@H](C(=O)N[C@@H](Cc1c[nH]cn1)C(=O)N[C@@H](Cc1c[nH]c2ccccc12)C(=O)N[C@@H](CO)C(=O)N[C@@H](Cc1c[nH]cn1)C(=O)N[C@H](CCCNC(=N)N)C(=O)N[C@@H](Cc1c[nH]c2ccccc12)C(=O)N[C@@H](Cc1ccc(C(=O)c2ccccc2)cc1)C(=O)N1CCC[C@H]1C(=O)NNC(N)=O)N(C)C(=O)CN1CCN(CC(=O)O)CCN(CC(=O)O)CCN(CC(=O)O)CC1` [BRU-2736], a half-maximal effect under setting [2] (EC50) was put at 1420 nM. This lies in the single-digit micromolar range.
On to `CNCC(=O)N[C@@H](CCCNC(=N)N)C(=O)N[C@@H](Cc1c[nH]c2ccccc12)C(=O)N[C@@H](CO)C(=O)N[C@@H](Cc1c[nH]cn1)C(=O)N[C@H](CCCNC(=N)N)C(=O)N[C@@H](Cc1c[nH]c2ccccc12)C(=O)N[C@@H](Cc1ccc(C(=O)c2ccccc2)cc1)C(=O)N1CCC[C@H]1C(=O)NCCCNC(=O)CN1CCN(CC(=O)O)CCN(CC(=O)O)CCN(CC(=O)O)CC1` [compound 3076], for which the EC50 is 750 ± 40 nM.

The record behind these values is patent US20120045393A1 (priority 2009, published 2012).
